Data published in patent publication US20100062063A1, “LIGHT-STABLE SOLID PHARMACEUTICAL COMPOSITION OF RAMOSETRON” (ASTELLAS PHARMA INC., priority 2006, published 2010).
Entries after “also recorded” stand apart in the source; their conditions may differ.

Legend:
[1] = Area under the light absorbance spectrum curve of a 0.001 w/v % aqueous solution (UV meter, trapezoidal formula); assay type: physicochemical; conditions: 0.001 w/v % aqueous solution of the added compound
Description: FIG. 1 is a graph showing the relationship between the absorbance wavelength and the absorbance of various compounds. The measurement method is as follows. A 0.001 w/v % aqueous solution of a drug and various stabilizers was prepared, and the absorbances at each absorbance wavelength in a range of 200 nm to 600 nm were measured. […] Condition: scan speed: medium speed, sampling pitch: 1.0, length of light path: 10 mm, width of a slit: 2.0 nm.
FIG. 2 is a graph showing a method for calculating the area under the spectrum curve of various compounds. The area under the spectrum curve was calculated by a trapezoidal formula. That is, for the spectrum of each of the compounds, the trapezoidal area was calculated at every sampling pitch (1.0 nm), and a desired area was measured from the total value of the trapezoidal areas in the wavelength range.

[2] = Stability under irradiation with a white fluorescent lamp of 1000 Lux, assay value by liquid chromatography; conditions: compound added to ramosetron hydrochloride preparation
Description: The quantitative determination was carried out by liquid chromatography.

[3] = Stability under sealing of an HDPE plastic bottle at 40° C. and 75% RH, assay value by liquid chromatography; assay type: physicochemical; conditions: compound added to ramosetron or its salt

Molecule | area under the spectrum curve at the wavelength range of 220 nm to 240 nm [1] | area under the spectrum curve at the wavelength range of 280 nm to 300 nm [1] | stabilizing effect of the added compound on ramosetron hydrochloride against light (in words) [2] | stabilizing effect of the added compound on ramosetron under a high-temperature and high-humidity condition (in words) [3]
O=C([O-])c1ccccc1-c1c2cc(I)c(=O)c(I)c-2oc2c(I)c([O-])c(I)cc12.[Na+].[Na+] [Food Red No. 3, reference compound] | 4.2 | 1.8 |  | 
O=S(=O)([O-])c1cc(S(=O)(=O)[O-])c2c(N=Nc3ccc(S(=O)(=O)[O-])c4ccccc34)c(O)ccc2c1.[Na+].[Na+].[Na+] [Food Red No. 102] | 10.0 | 3.1 |  | 
OC[C@@H](O)[C@@H](O)[C@H](O)[C@H](O)CO [mannitol, reference compound] | 0.1 | 0.1 | did not exhibit a remarkable stabilizing effect against light | 
Cc1cc(S(=O)(=O)[O-])c2c(C)ccc(C(C)C)cc1-2.[Na+] [sodium azulene sulfonate] | 8.4 | 19.9 | a remarkable stabilizing effect of ramosetron hydrochloride against the irradiation with light is found; also recorded: exhibited a remarkable stabilizing effect against light | 
methyl hesperidin | 5.4 | 3.7 | a remarkable stabilizing effect of ramosetron hydrochloride against the irradiation with light is found; also recorded: exhibited a remarkable stabilizing effect against light | a remarkable stabilizing effect under a high-temperature and high-humidity condition
αG hesperidin | 6.0 | 5.0 | a remarkable stabilizing effect of ramosetron hydrochloride against the irradiation with light is found; also recorded: exhibited a remarkable stabilizing effect against light | a remarkable stabilizing effect under a high-temperature and high-humidity condition
